Assay results as given in US11918550B2, “Sensitization of cancer cells to differentiation therapy with mitochondrial uncoupler niclosamide ethanolamine” (The Board of Trustees of the Leland Stanford Junior …, priority 2020, dated 2024).

Tests used:
Format in all cases: cell-based
[1] = system: RA-resistant neuroblastoma cells; experiment: Clonogenic assay; details: 1 μM NEN with 1 μM RA, two weeks
Procedure: For the clonogenic assay, 500 cells were plated in 60 mm dishes. After 24 h, cells were treated with indicated conditions. After 14 days, the cells were fixed by 50% methanol in PBS for 15 minutes and stained by crystal violet staining solution (0.5% crystal violet and 25% methanol in PBS). The quantification was done by using countPHICS.

SK-N-BE(2) cells = experiment: RNA-seq gene expression profiling with GSEA/DAVID analysis and qPCR validation
Procedure: RNA isolation, reverse transcription, and real-time PCR. The procedure was performed as described before. Briefly, total RNA was isolated from 60 mm tissue culture plates according to the TRIzol Reagent (Invitrogen, 15596026) protocol. 3 μg of total RNA was used in the reverse transcription reaction using the iScript cDNA synthesis kit (Bio-Rad). Quantitative PCR amplification was performed on the Prism 7900 Sequence Detection System (Applied Biosystems) using Taqman Gene Expression Assays (Applied Biosystems). Gene expression level were normalized to 18S rRNA.
RNA Sequencing and bioinformatics analysis. […] The RNA-seq library was constructed and subjected to 150 bp paired-end sequencing on an Illumina sequencing platform (Novogene). RNA-seq analysis was performed using the kallisto and sleuth analytical pipeline. In brief, a transcript index was generated with reference to Ensembl version 67 for hg19. Paired-end mRNA-seq reads were pseudo-aligned using kallisto (v0.42.4) with respect to this transcript index using 100 bootstraps (-b 100) to estimate the variance of estimated transcript abundances. Transcript-level estimates were aggregated to transcripts per million (TPM) estimates for each gene, with gene names assigned from Ensembl using biomaRt. Differential gene expression analysis was performed using the sleuth R package across pairwise groups using Wald tests, with significant hits called with a sleuth q-value<0.05 and log 2(fold change) >0.693 or <−0.693. […] All the annotated transcripts (˜21,427 features in total) with expression values were uploaded to a locally-installed GSEA tool (version 4.1.0) and compared against the H: hallmark gene sets (50 gene sets).
To generate the favorable or unfavorable prognosis gene sets, Kaplan-Meier assay were employed for all the genes independently by using all 11 available neuroblastoma patient databases from R2.
For functional annotation, differentially expressed genes were submitted to online Database for Annotation, Visualization and Integrated Discovery (DAVID) website. The Analyses in DAVID were performed using the default parameters.

HIF2α = experiment: Western blot of nuclear HIF2α under normoxia or hypoxia; details: SK-N-BE(2), 2 or 4 μM NEN, 3.5 mM α-KG
Procedure: Protein extraction and immunoblot. […] Cell lysate was centrifuged at 3000 rpm for 3 min at 4° C. The supernatant containing cytosolic proteins was transferred to a different tube. […] Then the solution was sonicated at 4° C. for 6 cycles (1 cycle=30 s sonication and 30 s cooldown with “High” energy intensity) using a Bioruptor® Plus sonication (Diagenode, UCD-300). After sonication, the solution was centrifuged at 15,000 rpm for 10 minutes. The supernatant was kept as nuclear extraction. […] After blocking in 5% non-fat milk for 30 minutes at room temperature (RT), the primary antibody was added for incubation overnight at 4° C.

[2] = GSEA against gene sets from 11 neuroblastoma datasets of the R2 database
[3] = SK-N-BE(2), NEN 16 h, DAVID analysis
[4] = SK-N-BE(2), NEN 16 h, sleuth q-value<0.05, b>abs(ln(2))
[5] = SK-N-BE(2), RNA-seq, validated by RT-qPCR

SMILES: O=C(Nc1ccc([N+](=O)[O-])cc1Cl)c1cc(Cl)ccc1O [NEN, 5-chloro-N-(2-chloro-4-nitrophenyl)-2-hydroxybenzamide compound with 2-aminoethanol (1:1)]
- inhibition of clonogenicity, NEN with RA [1]: strong synergistic effect
- enrichment of NEN-downregulated genes in patient prognosis gene sets (SK-N-BE(2) cells; [2]): enriched in unfavorable prognosis gene sets
- enrichment of NEN-upregulated genes in patient prognosis gene sets (SK-N-BE(2) cells; [2]): enriched in all the favorable prognosis gene sets except one
- genes expression in RAR signaling induced by RA (SK-N-BE(2) cells; SK-N-BE(2), 1 μM NEN + 1 μM 13-cis-RA 16 hrs, validated by qRT-PCR): significantly enhanced
- p53 pathway gene expression (GSEA) (SK-N-BE(2) cells; SK-N-BE(2), NEN 16 h): significantly increased
- pathways enriched in NEN-downregulated genes (SK-N-BE(2) cells; [3]): DNA replication and cell cycle progression
- pathways enriched in upregulated genes (SK-N-BE(2) cells; [3]): neurogenesis, nervous system development and neuron differentiation
- number of genes downregulated (SK-N-BE(2) cells; [4]): 224
- number of genes significantly upregulated (SK-N-BE(2) cells; [4]): 495
- cell division-related genes (GSEA hallmarks E2F-TARGETS, G2M_CHECKPOINT) (SK-N-BE(2) cells; SK-N-BE(2), NEN 16 h vs CTRL): downregulation
- expression of N-Myc targeted genes (GSEA MYC_TARGETS_V1, V2) (SK-N-BE(2) cells; SK-N-BE(2), NEN 16 h vs CTRL): reduced
- expression of canonical Wnt/β-catenin target genes (SK-N-BE(2) cells; [5]): reduced
- gene expression of inhibitor of Wnt/β-catenin pathway including TP53 (SK-N-BE(2) cells; [5]): upregulated
- inhibition of the accumulation of HIF2a protein (HIF2α): inhibited
